Values after ≈ are worked out from the molar mass of the structure shown.
Test system: RhV-16 (Rhinovirus)
Assay: microbe, parasite or virus in culture
Assay type: cell-based
Conditions: Enterovirus; 120 hours at 32° C.; read-out: IC50, RhV-16 (50 percent inhibition of plaque formation)

Row | Structure (SMILES) | IC50
1 | C#C/C=C(\c1ccc(F)cc1)c1ccc2nc(N)n(S(=O)(=O)C(C)C)c2c1 [1B (trans)] | 0.032 µg/mL (≈ 0.0835 µM)
2 | C#C/C=C(\c1ccccc1)c1ccc2nc(N)n(S(=O)(=O)C(C)C)c2c1 [2C (trans)] | 0.039 µg/mL (≈ 0.107 µM)
3 | C#C/C=C(\c1ccc(OC)cc1)c1ccc2nc(N)n(S(=O)(=O)C(C)C)c2c1 [3 (trans)] | 0.029 µg/mL (≈ 0.0733 µM)
4 | C#CC=C(c1cccc(F)c1)c1ccc2nc(N)n(S(=O)(=O)C(C)C)c2c1 [24 (trans)] | 0.057 µg/mL (≈ 0.149 µM)
5 | C#CC=C(c1ccc(OC)c(F)c1)c1ccc2nc(N)n(S(=O)(=O)C(C)C)c2c1 [25 (trans)] | 0.06 µg/mL (≈ 0.145 µM)
6 | C#CC=C(c1ccc2nc(N)n(S(=O)(=O)C(C)C)c2c1)c1cc(F)ccc1F [26 (trans)] | 0.099 µg/mL (≈ 0.247 µM)
7 | C#CC=C(c1cccc(Cl)c1)c1ccc2nc(N)n(S(=O)(=O)C(C)C)c2c1 [27 (trans)] | 0.185 µg/mL (≈ 0.463 µM)
8 | C#CC=C(c1cc(F)cc(F)c1)c1ccc2nc(N)n(S(=O)(=O)C(C)C)c2c1 [29 (trans)] | 0.261 µg/mL (≈ 0.65 µM)

Test system: RhV-14 (Rhinovirus)
Assay: microbe, parasite or virus in culture
Assay type: cell-based
Conditions: 120 hours at 32° C.

Row | Structure (SMILES) | IC50, RhV-14 (50 percent inhibition of plaque formation)
9 | C#CC=C(c1cccc(F)c1)c1ccc2nc(N)n(S(=O)(=O)N(C)C)c2c1 [17 (trans)] | 0.071 µg/mL
10 | C#CC=C(c1ccc2nc(N)n(S(=O)(=O)C(C)C)c2c1)c1ccccc1F [21 (cis)] | 0.478 µg/mL
11 | C#CC=C(c1ccc2nc(N)n(S(=O)(=O)C(C)C)c2c1)c1ccccc1F [21 (trans)] | 0.078 µg/mL
12 | C#CC=C(c1ccc(OC)c(F)c1)c1ccc2nc(N)n(S(=O)(=O)C(C)C)c2c1 [25 (cis)] | 0.428 µg/mL
13 | C#CC=C(c1ccc(OC)c(F)c1)c1ccc2nc(N)n(S(=O)(=O)C(C)C)c2c1 [25 (trans)] | 0.065 µg/mL

Same assay, conditions: Enterovirus, 120 h, 120 hours at 32° C.; read-out: IC50, RhV-14 (50 percent inhibition of plaque formation)

Row | Structure (SMILES) | IC50
14 | CC(C)S(=O)(=O)n1c(N)nc2ccc(/C(=C\C#C[Si](C)(C)C)c3ccc(F)cc3)cc21 [1A (cis)] | 3.9 µg/mL (≈ 8.56 µM)
15 | CC(C)S(=O)(=O)n1c(N)nc2ccc(/C(=C/C#C[Si](C)(C)C)c3ccc(F)cc3)cc21 [1A (trans)] | 10.9 µg/mL (≈ 23.9 µM)
16 | C#C/C=C(\c1ccc(F)cc1)c1ccc2nc(N)n(S(=O)(=O)C(C)C)c2c1 [1B (trans)] | 0.101 µg/mL (≈ 0.263 µM)
17 | C#C/C=C(\c1ccccc1)c1ccc2nc(N)n(S(=O)(=O)C(C)C)c2c1 [2C (trans)] | 0.081 µg/mL (≈ 0.222 µM)
18 | C#C/C=C(\c1ccc(OC)cc1)c1ccc2nc(N)n(S(=O)(=O)C(C)C)c2c1 [3 (trans)] | 0.059 µg/mL (≈ 0.149 µM)
19 | C#C/C=C(\c1ccccc1)c1cc2c(cc1F)nc(N)n2S(=O)(=O)C(C)C [5 (trans)] | 1.9 µg/mL (≈ 4.96 µM)
20 | C#C/C=C(\c1cccc(C(F)(F)F)c1)c1ccc2nc(N)n(S(=O)(=O)C(C)C)c2c1 [14 (trans)] | 0.331 µg/mL (≈ 0.764 µM)
21 | C#CC=C(c1ccc(N(C)C)cc1)c1ccc2nc(N)n(S(=O)(=O)C(C)C)c2c1 [15B (trans)] | 0.1 µg/mL (≈ 0.245 µM)
22 | C#CC=C(c1cccc(F)c1)c1ccc2nc(N)n(S(=O)(=O)N(C)C)c2c1 [16B (trans)] | 0.038 µg/mL (≈ 0.0988 µM)
23 | C#CC=C(c1ccc(F)c(F)c1)c1ccc2nc(NS(C)(=O)=O)n(S(=O)(=O)C(C)C)c2c1 [18 (trans)] | 1.88 µg/mL (≈ 3.92 µM)
24 | C#CC=C(c1ccc(C)cc1)c1ccc2nc(N)n(S(=O)(=O)C(C)C)c2c1 [19 (trans)] | 0.078 µg/mL (≈ 0.206 µM)
25 | C#CC=C(c1ccc(F)c(F)c1)c1ccc2nc(N)n(S(=O)(=O)C(C)C)c2c1 [20 (trans)] | 0.155 µg/mL (≈ 0.386 µM)
26 | C#CC=C(c1ccccc1)c1ccc2nc(N)n(S(=O)(=O)C(C)C)c2c1F [22 (trans)] | 1.9 µg/mL (≈ 4.96 µM)
27 | C#CC=C(c1ccccc1)c1cc2c(cc1C)nc(N)n2S(=O)(=O)C(C)C [23 (trans)] | 3.9 µg/mL (≈ 10.3 µM)
28 | C#CC=C(c1cccc(F)c1)c1ccc2nc(N)n(S(=O)(=O)C(C)C)c2c1 [24 (trans)] | 0.088 µg/mL (≈ 0.229 µM)
29 | C#CC=C(c1ccc2nc(N)n(S(=O)(=O)C(C)C)c2c1)c1cc(F)ccc1F [26 (trans)] | 0.115 µg/mL (≈ 0.286 µM)
30 | C#CC=C(c1cccc(Cl)c1)c1ccc2nc(N)n(S(=O)(=O)C(C)C)c2c1 [27 (trans)] | 0.253 µg/mL (≈ 0.633 µM)
31 | C#CC=C(c1cc(F)cc(F)c1)c1ccc2nc(N)n(S(=O)(=O)C(C)C)c2c1 [29 (trans)] | 0.236 µg/mL (≈ 0.588 µM)
32 | CC#CC=C(c1cccc(F)c1)c1ccc2nc(N)n(S(=O)(=O)C(C)C)c2c1 [33D (trans)] | 0.19 µg/mL (≈ 0.478 µM)

Test system: RhV-1 (Rhinovirus)
Assay: microbe, parasite or virus in culture
Assay type: cell-based
Conditions: Enterovirus; 120 hours at 32° C.; read-out: IC50, RhV-1 (50 percent inhibition of plaque formation)

Row | Structure (SMILES) | IC50
33 | C#C/C=C(\c1ccc(F)cc1)c1ccc2nc(N)n(S(=O)(=O)C(C)C)c2c1 [1B (trans)] | 0.078 µg/mL (≈ 0.203 µM)
34 | C#C/C=C(\c1ccccc1)c1ccc2nc(N)n(S(=O)(=O)C(C)C)c2c1 [2C (trans)] | 0.033 µg/mL (≈ 0.0903 µM)
35 | C#C/C=C(\c1ccc(OC)cc1)c1ccc2nc(N)n(S(=O)(=O)C(C)C)c2c1 [3 (trans)] | 0.03 µg/mL (≈ 0.0759 µM)
36 | C#CC=C(c1cccc(F)c1)c1ccc2nc(N)n(S(=O)(=O)C(C)C)c2c1 [24 (trans)] | 0.027 µg/mL (≈ 0.0704 µM)
37 | C#CC=C(c1ccc(OC)c(F)c1)c1ccc2nc(N)n(S(=O)(=O)C(C)C)c2c1 [25 (trans)] | 0.049 µg/mL (≈ 0.119 µM)
38 | C#CC=C(c1ccc2nc(N)n(S(=O)(=O)C(C)C)c2c1)c1cc(F)ccc1F [26 (trans)] | 0.096 µg/mL (≈ 0.239 µM)
39 | C#CC=C(c1cccc(Cl)c1)c1ccc2nc(N)n(S(=O)(=O)C(C)C)c2c1 [27 (trans)] | 0.129 µg/mL (≈ 0.323 µM)
40 | C#CC=C(c1cc(F)cc(F)c1)c1ccc2nc(N)n(S(=O)(=O)C(C)C)c2c1 [29 (trans)] | 0.124 µg/mL (≈ 0.309 µM)

Test system: RhV-2 (Rhinovirus)
Assay: microbe, parasite or virus in culture
Assay type: cell-based
Conditions: Enterovirus; 120 hours at 32° C.; read-out: IC50, RhV-2 (50 percent inhibition of plaque formation)

Row | Structure (SMILES) | IC50
41 | C#C/C=C(\c1ccc(F)cc1)c1ccc2nc(N)n(S(=O)(=O)C(C)C)c2c1 [1B (trans)] | 0.091 µg/mL (≈ 0.237 µM)
42 | C#C/C=C(\c1ccccc1)c1ccc2nc(N)n(S(=O)(=O)C(C)C)c2c1 [2C (trans)] | 0.065 µg/mL (≈ 0.178 µM)
43 | C#C/C=C(\c1ccc(OC)cc1)c1ccc2nc(N)n(S(=O)(=O)C(C)C)c2c1 [3 (trans)] | 0.041 µg/mL (≈ 0.104 µM)
44 | C#CC=C(c1cccc(F)c1)c1ccc2nc(N)n(S(=O)(=O)C(C)C)c2c1 [24 (trans)] | 0.069 µg/mL (≈ 0.18 µM)
45 | C#CC=C(c1ccc(OC)c(F)c1)c1ccc2nc(N)n(S(=O)(=O)C(C)C)c2c1 [25 (trans)] | 0.054 µg/mL (≈ 0.131 µM)
46 | C#CC=C(c1ccc2nc(N)n(S(=O)(=O)C(C)C)c2c1)c1cc(F)ccc1F [26 (trans)] | 0.079 µg/mL (≈ 0.197 µM)
47 | C#CC=C(c1cccc(Cl)c1)c1ccc2nc(N)n(S(=O)(=O)C(C)C)c2c1 [27 (trans)] | 0.123 µg/mL (≈ 0.308 µM)
48 | C#CC=C(c1ccc(OC(F)(F)F)cc1)c1ccc2nc(N)n(S(=O)(=O)C(C)C)c2c1 [28 (trans)] | 0.535 µg/mL (≈ 1.19 µM)
49 | C#CC=C(c1cc(F)cc(F)c1)c1ccc2nc(N)n(S(=O)(=O)C(C)C)c2c1 [29 (trans)] | 0.176 µg/mL (≈ 0.438 µM)

Test system: PV-1 (poliovirus)
Assay: microbe, parasite or virus in culture
Assay type: cell-based
Conditions: Enterovirus C; 72 hours at 37° C.; read-out: IC50, PV-1 (50 percent inhibition of plaque formation)

Row | Structure (SMILES) | IC50
50 | C#C/C=C(/c1ccccc1)c1ccc2nc(N)n(S(=O)(=O)C(C)C)c2c1 [2C (cis)] | 0.19 µg/mL (≈ 0.52 µM)
51 | C#C/C=C(\c1ccccc1)c1ccc2nc(N)n(S(=O)(=O)C(C)C)c2c1 [2C (trans)] | 0.035 µg/mL (≈ 0.0958 µM)
52 | C#C/C=C(\c1ccc(OC)cc1)c1ccc2nc(N)n(S(=O)(=O)C(C)C)c2c1 [3 (trans)] | 0.21 µg/mL (≈ 0.531 µM)
53 | C#C/C=C(\c1ccc(SC)cc1)c1ccc2nc(N)n(S(=O)(=O)C(C)C)c2c1 [4 (trans)] | 0.5 µg/mL (≈ 1.21 µM)
54 | C#C/C=C(\c1ccc(C)c(C)c1)c1ccc2nc(N)n(S(=O)(=O)C(C)C)c2c1 [8 (trans)] | 0.1 µg/mL (≈ 0.254 µM)
55 | C#C/C=C(/c1ccccc1)c1ccc2nc(N)n(-c3ccc(OC)cc3)c2c1 [9 (cis)] | 0.52 µg/mL (≈ 1.42 µM)
56 | C#C/C=C(\c1ccccc1)c1ccc2nc(N)n(-c3ccc(OC)cc3)c2c1 [9 (trans)] | 0.11 µg/mL (≈ 0.301 µM)
57 | C#C/C=C(/c1ccc(C(C)C)cc1)c1ccc2nc(N)n(S(=O)(=O)C(C)C)c2c1 [11 (cis)] | 2.74 µg/mL (≈ 6.72 µM)
58 | C#C/C=C(\c1ccc(C(C)C)cc1)c1ccc2nc(N)n(S(=O)(=O)C(C)C)c2c1 [11 (trans)] | 0.088 µg/mL (≈ 0.216 µM)
59 | C#C/C=C(/c1ccccc1)c1ccc2ncn(S(=O)(=O)C(C)C)c2c1 [12 (cis)] | 50 µg/mL (≈ 143 µM)
60 | C#C/C=C(\c1ccccc1)c1ccc2ncn(S(=O)(=O)C(C)C)c2c1 [12 (trans)] | 19.2 µg/mL (≈ 54.8 µM)
61 | C#C/C=C(\c1ccc(C(F)(F)F)cc1)c1ccc2nc(N)n(S(=O)(=O)C(C)C)c2c1 [13 (trans)] | 0.12 µg/mL (≈ 0.277 µM)
62 | C#CC=C(c1ccc([S+](C)[O-])cc1)c1ccc2nc(N)n(S(=O)(=O)C(C)C)c2c1 (stereo not drawn) [30 (trans)] | 0.07 µg/mL (≈ 0.164 µM)
63 | C#CC=C(c1ccc(S(C)(=O)=O)cc1)c1ccc2nc(N)n(S(=O)(=O)C(C)C)c2c1 [31 (trans)] | 0.05 µg/mL (≈ 0.113 µM)

Test system: CS-A21C (Coxsackie virus)
Assay: organism not typed
Assay type: cell-based
Conditions: 72 hours at 37° C.; read-out: IC50, CS-A21C (50 percent inhibition of plaque formation)

Row | Structure (SMILES) | IC50
64 | C#C/C=C(\c1ccccc1)c1ccc2nc(N)n(S(=O)(=O)C(C)C)c2c1 [2C (trans)] | 0.32 µg/mL (≈ 0.876 µM)

Test system: CS-B3 (Coxsackie virus)
Assay: organism not typed
Assay type: cell-based
Conditions: 72 hours at 37° C.; read-out: IC50, CS-B3 (50 percent inhibition of plaque formation)

Row | Structure (SMILES) | IC50
65 | C#C/C=C(/c1ccccc1)c1ccc2nc(N)n(S(=O)(=O)C(C)C)c2c1 [2C (cis)] | 0.055 µg/mL (≈ 0.15 µM)

Source: patent US5693661A (priority 1995, dated 1997)
